Where two headings read alike, the source gives them in different places.
Columns and labels:
[1] = system: subcutaneous xenograft tumor of human gastric cancer NCI-N87 cells; assay type: in vivo; settings: for Tumor volume (mm3) (Day 21) / T/C (%) / TGI (%): 3 mg/kg (D0-7) + 1 mg/kg (D8-21); for Tumor volume (mm3) (Day 21): NCI-N87 xenograft, Mean ± SEM; for T/C (%) / TGI (%): day 21
Description: Purpose of the assay: to evaluate the in vivo efficacy of compounds to be tested on subcutaneous xenograft tumor of human gastric cancer NCI-N87 cells in a BALB/c nude mouse model.
Animals of the assay: female BALB/c nude mice, 6-8 weeks old, weighted 18-22 grams; supplier: shanghai sippr bk laboratory animals Ltd.
(§1) Human gastric cancer NCI-N87 cells were cultured in monolayer in vitro. The culture conditions were RPMI-1640 medium plus 10% fetal bovine serum, 100 U/mL penicillin, 100 μg/mL streptomycin and 2 mM glutamine, 37° C., 5% CO2. The passaging was performed by the conventional digestion with trypsin-EDTA twice a week. When the cell saturation was 80%-90%, the cells were collected, counted and inoculated.
0.2 mL (10×10^6 cells) of NCI-N87 cells were inoculated subcutaneously on the right back of each nude mouse (PBS+Matrigel, 1:1). When the average tumor volume reached 145 mm^3, administration to each group was started.
The test compounds were formulated into a 0.3 mg/mL clear solution in the solvents of 10% NMP (N-methylpyrrolidone)+10% ethylene glycol stearate+80% water.
(§2) The assay index is to investigate whether tumor growth is inhibited, delayed or cured. Tumor diameter was measured twice a week with a vernier caliper. The calculation formula of tumor volume is: V=0.5a×b^2, wherein a and b represent the long and short diameters of tumor, respectively.
(§3) The antitumor efficacy of the compounds were evaluated by TGI (%) or relative tumor proliferation rate T/C (%). TGI (%) reflects the tumor growth inhibition rate. TGI (%) is calculated as follows: TGI (%)=[1−(average tumor volume at the end of administration for a certain treatment group−average tumor volume at the beginning of administration for this treatment group)/(average tumor volume at the end of treatment for a solvent control group−average tumor volume at the beginning of administration for this solvent control group)]×control group.
Relative tumor proliferation rate T/C (%): the calculation formula is as follows: T/C %=TRTV/CRTV (TRTV: RTV for the treatment group; CRTV: RTV for the negative control group). Relative tumor volume (RTV) is calculated based on tumor measurement results. The calculation formula is RTV=Vt/V0, wherein V0 is the average tumor volume measured at the beginning of administration (i.e., d0) to each group, Vt is the average tumor volume at a certain measurement, and the data for TRTV and CRTV were taken on the same day.
The tumor weight was measured after the assay is over and the T/C weight percentage was calculated. T weight and C weight represent the tumor weight of the administration group and the vehicle control group, respectively.
(§4) Statistical analysis included the mean and standard error (SEM) of tumor volume at each time point in each group. […] The comparison between two groups was analyzed by T-test, and the comparison among three or more groups was analyzed by one-way ANOVA. […] All data analysis was carried out with SPSS 17.0. p<0.05 was considered a significant difference.

[2] = system: subcutaneous xenograft tumor of human gastric cancer NCI-N87 cells; assay: Assay Example 4: in vivo pharmacodynamics, NCI-N87 xenograft; set-up: species or system BALB/c nude mouse; settings: for Tumor volume (mm3) (Day 28): NCI-N87 xenograft, Mean + SEM; for T/C (%) / TGI (%): day 28
Description: Purpose of the assay: to evaluate the in vivo efficacy of test compounds disclosed herein on subcutaneous xenograft tumor of human gastric cancer NCI-N87 cells in a BALB/c nude mouse model.
Animals of the assay: female BALB/c nude mice, 6-8 weeks old, weighted 18-22 grams; supplier: Shanghai Ling Chang Biotechnology Co., Ltd.
as §1, with “U/mL” for “μg/mL”, “by” for “by the”
0.2 mL (10×10^6) of NCI-N87 cells (PBS+Matrigel, 1:1) were inoculated subcutaneously on the right back of each mouse. When the average tumor volume reached 158 mm^3, administration to each group was started.
The test compounds were formulated into a 0.04 mg/mL and 0.08 mg/mL clear solution in and the solvents of 10% NMP (N-methylpyrrolidone)+10% ethylene glycol stearate+80% water.
as §2
as §3, with “or” for “or relative”, “group)]×100%.” for “group)]×control group.”
Tumor proliferation rate T/C (%): the calculation formula is as follows: T/C (%)=average tumor volume at the end of administration for a certain treatment group/average tumor volume at the end of treatment for the solvent control group×100%.
as §4, with “group (See Table 5-1 for specific data).” for “group.”

Row | Compound | Tumor volume (mm3) (Day 21) [1] | T/C (%) [1] | TGI (%) [1] | body weight of test animals (reference index for drug toxicity) ([1]; mouse, in vivo) | Tumor volume (mm3) (Day 28) ([2]; 0.4 mg/kg) | T/C (%) ([2]; 0.4 mg/kg) | TGI (%) ([2]; 0.4 mg/kg) | Tumor volume (mm3) (Day 28) ([2]; 0.8 mg/kg) | T/C (%) ([2]; 0.8 mg/kg) | TGI (%) ([2]; 0.8 mg/kg)
1 | C=CC(=O)N1[C@@H]2CC[C@H]1C[C@H](Oc1cc3c(Nc4ccc(Cl)c(Cl)c4F)ncnc3cc1OC)C2 [Example 8] | 30 ± 7 mm3 | 4.19% | 119.71% | significantly better than that of the control compound Poziotinib | – | – | – | – | – | –
2 | C=CC(=O)N1[C@@H]2CC[C@H]1C[C@H](Nc1cc3c(Nc4ccc(Cl)c(Cl)c4F)ncnc3cc1OC)C2 [Example 38] | – | – | – | – | 47 ± 13 mm3 | 7.51% | 123.72% | 15 ± 3 mm3 | 2.40% | 130.56%
3 | C=CC(=O)N1CCC(Oc2cc3c(Nc4ccc(Cl)c(Cl)c4F)ncnc3cc2OC)CC1 [Poziotinib, reference compound] | 54 ± 12 mm3 | 7.55% | 115.6% | – | 84 ± 9 mm3 | 13.42% | 115.81% | 28 ± 8 mm3 | 4.47% | 127.78%

Source: patent publication US20210078958A1, “QUINAZOLINE DERIVATIVE AND USE THEREOF” (MEDSHINE DISCOVERY INC., priority 2017, published 2021)
